Measurements published in US4367237A, “Prostacyclin analogues” (priority 1978, dated 1983).
Counter-ions that a name gives are not always drawn.

Experiments:
uterine contraction = assay: UCA (Uterine contraction activity); type: in vivo, pregnant female rat; settings: for UCA (Uterine contraction activity), relative to PGE1: pregnant female rat, intravenous, 20th day of gestation
From the text: (§1) The results of standard laboratory tests are shown below in Table 1, wherein the various activities are shown relative to PGE1.
The compounds stimulate uterine contraction in the pregnant female rat when administered intravenously on the 20th day of gestation.
Moreover, other compounds of the present invention [prepared as hereafter described in the Examples] other than the above compounds for which results are given in Table 1 stimulate uterine contraction when administered intravenously to the pregnant female rat on the 20th day of gestation at doses of 0.2-100 μg/kg animal body weight.

blood pressure = assay: BP (Hypotensive activity); type: in vivo; settings: intravenous, allobarbital-anaesthetised dog
From the text: as §1
The compounds produce falls in blood pressure when administered intravenously to the allobarbital-anaesthetised dog.

[1] = tested on: platelet-rich plasma of rats; assay: PAI (Inhibitory activity on blood platelet aggregation), adenosine diphosphate-induced; type: cell-based, rat; settings: 50% inhibition of ADP-induced aggregation
stress ulceration = assay: GUI (Inhibitory activity on gastric ulceration), stress ulceration; type: in vivo, rat; settings: stress ulceration of rats, oral, water bath 19° C. for 6 hours
Experimental: as §1
The compounds produce an inhibition of stress ulceration by oral administration in the stress ulceration of rats produced according to the method of Takagi and Okabe [Jap. J. Pharmc., 18, 9-18 (1968)], i.e. by soaking rats in a water bath at 19° C. for 6 hours.

gastric acid secretion = assay: GSI (Inhibitory activity on gastric acid secretion); type: in vivo; settings: increase in gastric acid pH from 2.0-2.5 to at least 4.0 in 50% of pentagastrin-treated rats, perfused intravenously
From the text: as §1
The compounds produce an increase in gastric acid pH from 2.0-2.5 to at least 4.0 in 50% of pentagastrin-treated rats when perfused intravenously.

diarrhoea = assay: Diarrhoea (Diarrhoea-producing activity); type: in vivo; settings: diarrhoea in 50% of mice, oral
From the text: as §1
The compounds produce diarrhoea in 50% of mice by oral administration.

[2] = tested on: blood platelet aggregation of the human; settings: cited from earlier work
artery = settings: cited from earlier work
[3] = tested on: isolated cat coronary artery; settings: J.C.S. Chem. Comm., 375 (1978); cited from earlier work
[4] = tested on: human blood platelet aggregation; settings: J.C.S. Chem. Comm., 375 (1978); cited from earlier work
[5] = tested on: women in the expired stage of pregnancy; assay: Clinical: induction of labour; type: in vivo, human; settings: pessary 0.2 mg, vaginal, one to three times at one- to three-hour intervals; five women
Experimental: One pessary containing 0.2 mg of (13E)-(6RS,9α,11α,15S)-6,9-epithio-11,15-dihydroxyprost-13-enoic acid methyl ester (prepared as described in Example 21) was administered vaginally one to three times at one- to three-hour intervals to five women aged from twenty to forty years in the expired stage of pregnancy.

[6] = tested on: women in the early stages of pregnancy; assay: Clinical: termination of pregnancy; type: in vivo, human
Experimental: (§2) One pessary containing 1 mg of (13E)-(6RS,9α,11α,15S)-6,9-epithio-11,15-dihydroxyprost-13-enoic acid methyl ester (prepared as described in Example 21) was administered vaginally two to five times at one- to three-hour intervals to fifteen women aged from twenty to forty years in the early stages of pregnancy.
One to three tablets containing 0.25 mg of (13E)-(6RS,9α,11α,15R)-6,9-epithio-11,15-dihydroxy-16,16-dimethylprost-13-enoic acid methyl ester (prepared as described in Example 17) were administered orally one to five times to seven women aged from twenty-five to thirty years in the early stages of pregnancy.

[7] = LD50 (Acute toxicity tests); settings: mouse, in vivo, iv; injected intravenously into mice
Experimental: The compounds are injected intravenously into mice.

[8] = tested on: women two or three days before the expected date of menstruation; assay: Clinical: beginning of menstruation; type: in vivo, human
Experimental: as §2, with “vaginally one” for “vaginally two”, “years two or three days before” for “years in”, “the expected date” for “the early stages”, “of menstruation.” for “of pregnancy.”
One pessary containing 0.5 mg of (13E)-(6RS,9α,11α,15R)-6,9-epithio-11,15-dihydroxy-16,16-dimethylprost-13-enoic acid methyl ester (prepared as described in Example 21) was administered vaginally one to three times at one- to three-hour intervals to three women aged twenty or twenty-one years two or three days before the expected date of menstruation.
One to three tablets containing 0.5 mg of (13E)-(6RS,9α,11α,15S)-6,9-epithio-11,15-dihydroxyprost-13-enoic acid methyl ester (prepared as described in Example 17) were administered orally to five women aged from twenty to twenty-two years two or three days before the expected date of menstruation.

blood platelets = settings: cited from earlier work

SMILES	UCA (Uterine contraction activity), relative to PGE1 (uterine contraction)	BP (Hypotensive activity), relative to PGE1 (blood pressure)	PAI (Inhibitory activity on blood platelet aggregation), relative to PGE1 [1]	GUI (Inhibitory activity on gastric ulceration), relative to PGE1 (stress ulceration)	GSI (Inhibitory activity on gastric acid secretion), relative to PGE1 (gastric acid secretion)	Diarrhoea (Diarrhoea-producing activity), relative to PGE1 (diarrhoea)	activity on isolated cat coronary artery [3]	activity on human blood platelet aggregation [4]	LD50 [7]	other results
CCCC[C@H](C)[C@H](O)/C=C/[C@@H]1[C@H]2CC(CCCCC(=O)OC)S[C@H]2C[C@H]1O (mixture of isomers) [E, (13E)-(6RS,9α,11α,15S,16S)-6,9-epithio-11,15-dihydroxy-16-methylprost-13-enoic acid methyl ester]	27.3	0.55	0.21	< 0.5	< 0.3	0.514	–	–	–	–
CCCCC[C@H](O)/C=C/[C@@H]1[C@H]2C/C(=C/CCCC(=O)O)O[C@H]2C[C@H]1O [PGI2, (5Z,13E)-(9α,11α,15S)-6,9-epoxy-11,15-dihydroxyprosta-5,13-dienoic acid]	–	–	–	–	–	–	–	–	–	inhibition of arachidonic acid-induced blood platelet aggregation [2]: strongly inhibits; activity on the artery (artery): relaxing activity on the artery
CCCCC[C@H](O)/C=C/[C@@H]1[C@H]2CC(CCCCC(=O)O)S[C@H]2C[C@H]1O (mixture of isomers) [B, (13E)-(6RS,9α,11α,15S)-6,9-epithio-11,15-dihydroxyprost-13-enoic acid]	10	0.2	0.038	< 0.5	< 0.1	< 0.1	vasoconstricting activity on isolated cat coronary artery	inhibitory activity on human blood platelet aggregation	–	stimulatory activity on uterine contraction (in words) (uterine contraction; rat, in vivo): selective strong stimulatory activity on uterine contraction
CCCCC[C@H](O)/C=C/[C@@H]1[C@H]2CC(CCCCC(=O)OC)S[C@H]2C[C@H]1O (mixture of isomers) [A, (13E)-(6RS,9α,11α,15S)-6,9-epithio-11,15-dihydroxyprost-13-enoic acid methyl ester]	11.5	0.2	0.03	< 0.5	< 0.1	0.072	vasoconstricting activity on isolated cat coronary artery	inhibitory activity on human blood platelet aggregation	100 mg/kg	induction of labour [5]: confirmed in all the cases; termination of pregnancy ([6]; pessary 1 mg, vaginal, two to five times, fifteen women): confirmed in all the cases; beginning of menstruation ([8]; one to three tablets 0.5 mg, oral, five women): confirmed in all the cases; beginning of menstruation ([8]; pessary 1 mg, vaginal, one to five times, fifteen women): confirmed in all the cases
CCCCC1([C@H](O)/C=C/[C@@H]2[C@H]3CC(CCCCC(=O)OC)S[C@H]3C[C@H]2O)CCC1 (stereo partly drawn) [C, (13E)-(6RS,9α,11α,15R)-6,9-epithio-11,15-dihydroxy-15-(1-butylcyclobutyl)-16,17,18,19,20-pentanorprost-13-enoic acid methyl ester]	15.8	< 0.1	0.011	< 0.5	0.3	< 0.02	–	–	100 mg/kg	–
CCCCC[C@H](O)/C=C/[C@H]1[C@H](O)CC(=O)[C@@H]1CCCCCCC(=O)O [PGE1, reference compound]	1	1	–	–	1	1	–	–	–	–
CCCCC[C@H](O)/C=C/[C@@H]1[C@H]2CC(CCCCC(=O)O)S[C@H]2C[C@H]1O (stereo partly shown) [sodium salt]	–	–	–	–	–	–	vasoconstricting activity on isolated cat coronary artery	inhibitory activity on human blood platelet aggregation	–	–
CCCCC[C@H](O)/C=C/[C@@H]1[C@H]2C/C(=C/CCCC(=O)OC)O[C@H]2C[C@H]1O [PGI2 methyl ester, reference compound]	0.5	20	85	–	–	< 0.1	–	–	–	–
CCCCC[C@H](O)/C=C/[C@H]1O[C@H]2C[C@H](O2)[C@@H]1C/C=C\CCCC(=O)O [thromboxane A2]	–	–	–	–	–	–	–	–	–	activity on blood platelets (blood platelets): aggregating activity on blood platelets; activity on the artery (artery): contracting activity on the artery
CCCCC(C)(C)[C@H](O)/C=C/[C@@H]1[C@H]2CC(CCCCC(=O)OC)S[C@H]2C[C@H]1O (mixture of isomers) [D, (13E)-(6RS,9α,11α,15R)-6,9-epithio-11,15-dihydroxy-16,16-dimethylprost-13-enoic acid methyl ester]	23.1	< 0.1	0.006	< 0.5	< 0.3	0.095	–	–	25 mg/kg	termination of pregnancy ([6]; one to three tablets 0.25 mg, oral, one to five times, seven women): confirmed in all the cases; beginning of menstruation ([8]; pessary 0.5 mg, vaginal, one to three times, three women): confirmed in all the cases
